Experimental data reported in patent publication US6472198B1, “Slow release substrates for driving microbial transformations of environmental contaminants” (The State of Oregon Acting by and through the State Board …, priority 1998, dated 2002).
Entries after “also recorded” stand apart in the source; their conditions may differ.

Assays:
[1] = Abiotic hydrolysis of TBOS and TKEBS in sterilized pH buffered solutions; assay type: physicochemical; details: for effect of temperature on hydrolysis: pH 7, 10 mg/L, 15 °C vs 30 °C; for factor of increase in rate of hydrolysis on ten-fold increase in concentration: pH 7, 30 °C, 10 mg/L to 100 mg/L
[2] = tested on: Pt. Mugu groundwater and aquifer solids microcosm; test: Anaerobic reductive dechlorination of TCE in Pt. Mugu microcosm amended with TBOS; assay type: cell-based; details: for incubation time after which dechlorination of the substance was observed: TCE 5 mg/L, Pt. Mugu microcosm
[3] = Solubility in water (statement); assay type: physicochemical
[4] = Hydrolysis period of slow release compounds in bioremediation studies; assay type: physicochemical; details: TBOS to 1-butanol, TPOS to phenol
From the text: These alcohols can then be used by the microorganisms to cometabolize halogenated organics, such as TCE, for example. As discussed in the Examples below, the decrease in TBOS in a poisoned (killed) control compared similarly to the nonpoisoned (live) microbially active system under anaerobic conditions. Microbial activity was indicated by the production of acetate, butanol, butyrate, and hydrogen in the live microcosms, and the lack of production in the poisoned control. […] Thus, TBOS is not directly degraded, but is first hydrolyzed by reactions with water to form 1-butanol, which can then be used to drive the aerobic cometabolism of chlorinated organics.

[5] = Hydrolysis rate category of organosilanes and organosiloxanes, approximately based on half lives; assay type: physicochemical; parameters: key: Slow - 1 month; Very Slow - Several months; Very Fast - days; Fast - weeks
[6] = tested on: microbial culture grown on TBOS; test: Aerobic cometabolism of TCE by microorganisms grown on TBOS; assay type: cell-based
Protocol: (§1) Gas phase TCE and cis-DCE concentrations were measured by injecting 10-100 μL of a gaseous sample into a HP-5890 gas chromatograph connected to a photoionization detector (PID) followed by a flame ionization detector (FID). Chromatographic separation was carried-out with a 30-m megabore GSQ-PLOT column from J&W Scientific (Folsom, Calif.). The GC operating conditions were as follows: injector temperature, 250° C.; detector temperature: 280° C.; the column was initially maintained at 40° C. for 2 minutes and then heated to 220° C. at 15° C./minute.
The microcosms for aerobic cometabolism studies were carried out as described in Example 1 under the heading “Aerobic Biodegradation.” The bacterial culture used was that described in Example 1 under the heading “Enrichment of Aerobic Culture.” cis-DCE and TCE stocks in water were prepared by saturating distilled water with cis-DCE and TCE at 30° C. TCE and cis-DCE dissolved in the water to their solubility limit. The aqueous phase from these stocks was then added to the microcosms to yield the required concentrations (0.8 mg/L for TCE and 2 mg/L for cis-DCE). TBOS was introduced into the microcosms by injecting pure TBOS liquid using a microliter syringe.
Microbial culture from the wastewater treatment plant of Corvallis, Oregon grown on TBOS was tested for its ability to cometabolize TCE and cis-DCE. Microcosms were constructed with 4.0 mg (dry weight) of culture enriched from a continuous-feed batch reactor according to the procedure described in Example 1. Three microcosms and a control were evaluated: a poisoned control (i.e., a killed microcosm) with TBOS and TCE; a biologically active microcosm with TBOS and TCE; and a resting cell microcosm with only TCE; and an acetylene block microcosm with TBOS and TCE (having acetylene in the head space). The acetylene block experiment was used to investigate the presence of a monooxygenase enzyme.

[7] = tested on: indigenous microorganisms in groundwater (Lawrence Livermore Site 300); test: Anaerobic reductive dechlorination of TCE in Site 300 groundwater microcosms containing TKEBS; assay type: cell-based
Protocol: In initial studies, groundwater from Lawrence Livermore Laboratory(Site 300, D3 Well) was used to make up six different microcosms. Two of these microcosms were sterilized to form controls, one by the addition of mercuric chloride and the other by autoclaving. Two microcosms were amended with sodium benzoate (200 mg/L) as an additional carbon source and the last two were left untouched.
Later experiments were carried out to re-evaluate the anaerobic TCE transformation rates driven by TKEBS transformation. The culture used for these biodegradation studies were indigenous microorganisms stimulated from the groundwater (as described in Example 1) collected from the same site initially studied. The anaerobic biodegradation studies were carried out using 1L media bottles. The microcosms were prepared in an anaerobic glove box and then purged using treated (to remove oxygen) nitrogen to remove the hydrogen and carbon dioxide introduced into the microcosms from the glove box.
The groundwater was purged with treated nitrogen to remove all traces of TCE and cis-DCE prior to re-injection of TCE. Pure TCE was added to obtain concentrations of 100 mg/L(aqueous). […] The microcosms were analyzed for chlorinated ethenes, hydrogen, carbon dioxide, alcohols, and their fermentation products.

[8] = tested on: microbially active Site 300 groundwater microcosm; test: Reductive dechlorination of TCE in Site 300 groundwater microcosm with TBOS and TKEBS added; assay type: cell-based; details: TCE additions at 0, 135, 160 days
Protocol: The TCE dechlorination experiments were conducted in the same way as described in Example 3. In these experiments, however, TBOS and TKEBS were amended to samples of the groundwater microcosms.
Shown in FIGS. 11a-11c is a microbial active version of a Site 300 microcosm with TBOS and TKEBS added. However in this case both ethybutanol and butanol are utilized, compared to the poisoned control where they accumulated. Acetate, butyrate and hydrogen are produced as a result of fermentation reactions. […] Three additions of TCE are transformed at 0, 135, and 160 days, with the corresponding increases in c-DCE occurring. Hydrogen is shown to be utilized upon TCE addition and produced once TCE transformation has stopped.

[9] = tested on: microbial culture grown on TBOS; test: Aerobic cometabolism of cis-DCE by microorganisms grown on TBOS; assay type: cell-based; details: biologically active microcosm
Protocol: as §1
The microcosms for aerobic cometabolism studies were carried out as described in Example 1 under the heading “Aerobic Biodegradation.” The bacterial culture used was that described in Example 1 under the heading “Enrichment of Aerobic Culture.” cis-DCE and TCE stocks in water were prepared by saturating distilled water with cis-DCE and TCE at 30° C. TCE and cis-DCE dissolved in the water to their solubility limit. […]
The microbial culture grown on TBOS was tested for its ability to cometabolize cis-DCE. […] Four microcosms and two controls were evaluated: a poisoned control with TBOS and cis-DCE; an autoclaved control with TBOS and cis-DCE; two biologically active microcosms with TBOS and cis-DCE; a resting cell microcosm with only cis-DCE; and an acetylene block microcosm with TBOS and cis-DCE.

[10] = tested on: microbial culture grown on TBOS; details: cited from earlier work
[11] = pH 7.8 (site groundwater), 30 °C, 10 mg/L
[12] = organosiloxanes, Table 2, key given under Table 1
[13] = organosilanes, Table 1, rates approximately based on half lives

CCCCO[Si](OCCCC)(OCCCC)OCCCC [No. 2, Tetrabutoxysilane]
1-butanol formed per TBOS hydrolyzed ([1]; 30 °C, 10 mg/L): 4 moles of 1-butanol per mole of TBOS | rate of transformation at pH 5 and pH 9 compared to pH 7 ([1]; 30 °C, 10 mg/L): increased by a factor of two | Rates of Hydrolysis Based on 1-butanol production ([1]; pH 5.0, 30 °C, 10 mg/L): 0.19 µmol/day | Rates of Hydrolysis Based on TBOS degradation ([1]; pH 5.0, 30 °C, 10 mg/L): -0.160 µmol/day | effect of temperature on hydrolysis [1]: Very little increase | Rates of Hydrolysis Based on 1-butanol production ([1]; pH 7.0, 15 °C, 10 mg/L): 0.08 µmol/day | Rates of Hydrolysis Based on TBOS degradation ([1]; pH 7.0, 15 °C, 10 mg/L): -0.060 µmol/day | Rates of Hydrolysis Based on 1-butanol production ([1]; pH 7.0, 30 °C, 10 mg/L): 0.08 µmol/day | Rates of Hydrolysis Based on TBOS degradation ([1]; pH 7.0, 30 °C, 10 mg/L): -0.062 µmol/day | factor of increase in rate of hydrolysis on ten-fold increase in concentration [1]: 4 | Rates of Hydrolysis Based on 1-butanol production ([1]; pH 7.0, 30 °C, 100 mg/L): 0.26 µmol/day | Rates of Hydrolysis Based on TBOS degradation ([1]; pH 7.0, 30 °C, 100 mg/L): -0.208 µmol/day | Rates of Hydrolysis Based on 1-butanol production [1, 11]: 0.16 µmol/day | Rates of Hydrolysis Based on TBOS degradation [1, 11]: -0.110 µmol/day | Rates of Hydrolysis Based on 1-butanol production ([1]; pH 9.0, 30 °C, 10 mg/L): 0.22 µmol/day | Rates of Hydrolysis Based on TBOS degradation ([1]; pH 9.0, 30 °C, 10 mg/L): -0.151 µmol/day | duration of TCE transformation resulting from addition of only TBOS ([2]; TBOS 1 g/L added at start of test): over 500 days | persistence of TBOS in the microcosm ([2]; anaerobic Pt. Mugu microcosm, TBOS 1 g/L): over 450 days | solubility [3]: very low | period over which hydrolysis to the alcohol occurs [4]: two month

c1ccc(O[Si](Oc2ccccc2)(Oc2ccccc2)O[Si](Oc2ccccc2)(Oc2ccccc2)Oc2ccccc2)cc1 [compound 22]
Hydrolysis rate [5, 12]: Slow (Slow - 1 month)

Cl/C=C\Cl [cis-DCE, cis-dichloroethylene]
incubation time after which dechlorination of the substance was observed ([2]; TBOS 1 g/L): about 90 days

CCCCO[Si](OCCCC)(OCCCC)O[Si](OCCCC)(OCCCC)OCCCC [compound 21]
Hydrolysis rate [5, 12]: Slow (Slow - 1 month)

Tetrakis(benzylmethoxy) silane [compound 16]
Hydrolysis rate [5, 13]: Fast

CCC(CC)CO[Si](OCC(CC)CC)(OCC(CC)CC)OCC(CC)CC [No. 3, Tetrakis(2-ethylbutoxy) silane]
rate of hydrolysis compared with TBOS ([1]; listed as TKEBS): much slower rate; also recorded: about an order of magnitude lower | Rates of Hydrolysis Based on 2-ethyl-butanol production ([1]; pH 5.0, 30 °C, 10 mg/L): 0.023 µmol/day | effect of temperature on hydrolysis [1]: Very little increase | Rates of Hydrolysis Based on 2-ethyl-butanol production ([1]; pH 7.0, 15 °C, 10 mg/L): 0.011 µmol/day | Rates of Hydrolysis Based on 2-ethyl-butanol production ([1]; pH 7.0, 30 °C, 10 mg/L): 0.012 µmol/day | factor of increase in rate of hydrolysis on ten-fold increase in concentration [1]: 10 | Rates of Hydrolysis Based on 2-ethyl-butanol production ([1]; pH 7.0, 30 °C, 100 mg/L): 0.105 µmol/day | Rates of Hydrolysis Based on 2-ethyl-butanol production [1, 11]: 0.011 µmol/day | Rates of Hydrolysis Based on 2-ethyl-butanol production ([1]; pH 9.0, 30 °C, 10 mg/L): 0.022 µmol/day

CCC(C)O[Si](OC(C)CC)(OC(C)CC)OC(C)CC (stereo not drawn) [compound 14, Tetrakis(1-methylpropoxy) silane]
Hydrolysis rate [5, 13]: Slow (Slow - 1 month)

CC(=O)O[Si](OC(C)=O)(OC(C)=O)OC(C)=O [compound 5, Silicon tetraacetate]
Hydrolysis rate [5, 13]: Very Fast

C=CCO[Si](OCC=C)(OCC=C)OCC=C [compound 11, Tetraallyloxy silane]
Hydrolysis rate [5, 13]: Slow (Slow - 1 month)

CCCC(=O)O[Si](OC(=O)CCC)(OC(=O)CCC)OC(=O)CCC [compound 7, Silicon tetrabutyrate]
Hydrolysis rate [5, 13]: Fast

c1ccc(O[Si](Oc2ccccc2)(Oc2ccccc2)Oc2ccccc2)cc1 [No. 4, Tetraphenoxysilane]
period over which hydrolysis to the alcohol occurs [4]: weeks

CCO[Si](OCC)(OCC)O[Si](OCC)(OCC)O[Si](OCC)(OCC)OCC [compound 23]
Hydrolysis rate [5, 12]: Slow (Slow - 1 month)

ClC=C(Cl)Cl [TCE, Trichloroethylene]
TCE transformation in acetylene-blocked microcosm ([6]; TBOS and TCE, acetylene in head space, in 140 hours): about 20% | time to complete cometabolism of TCE ([6]; TCE 0.89 mg/L (1.6 μmol), microcosm with TBOS 20 mg/L added): ≤ 65 h | TCE cometabolism by resting cells, less than that achieved with TBOS addition ([6]; resting cells, no TBOS added): 15-20% | anaerobic TCE transformation in initial experiments (in words) ([7]; 125 mL serum bottles, groundwater microcosms): complete transformation of TCE to cis-DCE | time for dechlorination of TCE to cis-DCE ([7]; TCE 100 mg/L, September '97 groundwater containing TKEBS and 2-ethylbutanol, 30 °C): 14 days | incubation time after which dechlorination of the substance was observed ([2]; TBOS 1 g/L): 40 days | TCE transformation (in words) [8]: rapidly transformed to c-DCE

Tetrakis(1-hydroxypropoxy) silane [compound 17]
Hydrolysis rate [5, 13]: Fast

Cl[C@@H]1O[C@@H]1Cl [cis-DCE epoxide]
half-life of cis-DCE epoxide transformation [9]: about 35 hours | half-life of abiotic transformation of cis-DCE epoxide [10]: 70 h

Tetraphenoxysilane [compound 4]
Hydrolysis rate [5, 13]: Very Fast

CC(C)CO[Si](OCC(C)C)(OCC(C)C)OCC(C)C [compound 15, Tetrakis(2-methylpropoxy) silane]
Hydrolysis rate [5, 13]: Slow (Slow - 1 month)

CCC(C)CO[Si](OCC(C)CC)(OCC(C)CC)OCC(C)CC (stereo not drawn) [compound 13, Tetrakis(2-methylbutoxy) silane]
Hydrolysis rate [5, 13]: Very Slow

CCCO[Si](OCCC)(OCCC)OCCC [compound 1, Tetrapropoxysilane]
Hydrolysis rate [5, 13]: Slow (Slow - 1 month)

CCO[Si](OCC)(OCC)O[Si](OCC)(OCC)OCC [compound 19]
Hydrolysis rate [5, 12]: Slow (Slow - 1 month)

CC(C)O[Si](OC(C)C)(OC(C)C)OC(C)C [compound 18, Tetrakis(1-methylethoxy) silane]
Hydrolysis rate [5, 13]: Slow (Slow - 1 month)

CCCO[Si](OCCC)(OCCC)O[Si](OCCC)(OCCC)OCCC [compound 20]
Hydrolysis rate [5, 12]: Slow (Slow - 1 month)

C=CCl [VC, vinyl chloride]
incubation time after which dechlorination of the substance was observed ([2]; TBOS 1 g/L): about 125 days

CCC(=O)O[Si](OC(=O)CC)(OC(=O)CC)OC(=O)CC [compound 6, Silicon tetrapropionate]
Hydrolysis rate [5, 13]: Fast

CCCCO[Si](OCCCC)(OCCCC)OCCCC [compound 2, Tetrabutoxysilane]
Hydrolysis rate [5, 13]: Slow (Slow - 1 month)

CCC(CC)CO[Si](OCC(CC)CC)(OCC(CC)CC)OCC(CC)CC [compound 3, Tetrakis(2-ethylbutoxy) silane]
Hydrolysis rate [5, 13]: Very Slow
